The numbers were not newly measured in patent publication US6221874A, “Method of treating bone loss by stimulation of calcitonin” (American Home Products Corporation, priority 1999, dated 2001), which cites them from elsewhere.

For series [1] the following is noted: post-menopausal osteoporosis; cited from earlier work.
The conditions of series [2]: cited from earlier work.

On to “calcitonin: 32 amino acid polypeptide hormone secreted by the parafollicular or C cells of the thyroid gland”, for which, in series [1], the “effect on bone mass and total body calcium” value was “maintenance of bone mass and total body calcium”; the “incidence of hip and vertebral fractures” value is “decreases in the incidence of hip and vertebral fractures”. In series [2], the “oral bioavailability (in words)” value is reported as “lack of oral bioavailability”.
